Earlier results as cited in article PMC3744102 (2010).
“And” between values parts separate entries of the source, which are not always exact repeats. Equal values may be shown once. “Also recorded” adds a separate entry of the source.

Substance: Y-G-G-F-L-R-R-I-R-P-K-L-K-W-D-N-Q
- cleaved bond (rhesus monkey blood): Arg6-Arg7, major; also recorded: Tyr1-G2, major
- fragment found (rhesus monkey blood): 2–6 and 8–17 and 9–17 and 11–17 and 3–17 and 4–17
- cleaved bond (human blood): Arg6-Arg7, major; also recorded: Tyr1-G2, major
- fragment found (human blood): 3–17 and 4–17 and 2–6 and 8–17 and 9–17 and 11–17
